The text below walks through data of publication PMC5499624 (Biomolecules & Therapeutics, 2017).

Data set [1] relates to TR-BBB cells. Put plainly: Uptake of radiolabelled substrates in siRNA-transfected TR-BBB cells. It counts as in vitro ADME, rat. The conditions noted are these: 37°C, 5 min.
For data set [2], the system named is proton coupled antiporter. Particulars: read-out: in vivo Km; mouse, in situ brain perfusion; ref André et al., 2009; cited from earlier work.
The test system of data set [3] is [^3H]imperatorin brain uptake. Put plainly: Brain uptake index. It counts as in vivo, rat. Particulars: 15 s after injection.
Another data set deals with hCMEC/D3 cells. Particulars: ref Kitamura et al., 2014, Sadiq et al., 2011; cited from earlier work.
The subject of the next data set is P-glycoprotein (P-gp). Particulars: ref Lili et al. (2013), cited from earlier work.
The next data set concerns rat brain. Put plainly: [^3H]imperatorin brain uptake by internal carotid artery perfusion. It counts as in vivo, SD rats. Particulars: ICAP.
The format of data set [4] is in vivo, SD rats. The conditions noted are these: for AUC: 60 min; for Uptake: 60 min after IV.
Data set [5] deals with TR-BBB cells. Put plainly: [^3H]imperatorin uptake by TR-BBB cells. It counts as in vitro ADME, rat.
Data set [6] can be described thus: [^3H]imperatorin uptake by TR-BBB cells. The conditions noted are these: rat, pH 7.4. It counts as in vitro ADME, rat.
Data set [7] concerns [^3H]imperatorin brain uptake. It counts as in vivo, SD rats. Particulars: compound 1 mM, ICAP 4 ml/min for 15 sec, pH 7.4.
Data set [8] deals with [^3H]imperatorin uptake by TR-BBB cells. The data set is described as follows: Inhibition of [^3H]imperatorin uptake by TR-BBB cells by selected compounds. The conditions noted are these: compound 1 mM (L-Carnitine: concentration cell empty), 37°C, 5 min. It counts as in vitro ADME, rat.
The test system is the same in data set [9]. It counts as in vitro ADME, rat. The conditions noted are these: 37°C, 5 min.
The conditions of data set [10]: sucrose; ref Lee and Kang, 2016; cited from earlier work.

What is called Km is the substrate concentration at which the rate is half of its maximum. By IC50 is commonly meant the concentration needed to halve the response being measured. Broadly, the efflux ratio is a quotient of directional permeabilities that is used to spot active efflux.

Structures can show the parent of a compound that is named as a salt. Where two headings read alike, the source gives them in different places.

With `CC(=O)O[C@H](CC(=O)[O-])C[N+](C)(C)C` [ALC, acetyl-L-carnitine], the “uptake after siRNA transfection” value in the data set on TR-BBB cells [1] (Octn2 siRNA) is recorded as “significantly inhibited”.
Take `Clc1cccc(Cl)c1N=C1NCCN1` [Clonidine, clonidine hydrochloride]: the Km in [2] was 600 µM. For the same compound, the “BUI of [^3H]imperatorin in presence of inhibitor” value (“BUI … of inhibitor” for short) in data set [3] (inhibitor 10 mM) is 33.9 ± 5.5 %.
Turning to `CN(C)CCOC(c1ccccc1)c1ccccc1` [Diphenhydramine, diphenhydramine], the Km in the data set with hCMEC/D3 cells was 59 µM.
Regarding `CC(C)=CCOc1c2occc2cc2ccc(=O)oc12` [Imperatorin], in the data set with P-glycoprotein (P-gp) (P-gp inhibition), the IC50 was more than 90 µM. Besides, the efflux ratio in the data set with P-glycoprotein (P-gp) (larger than 3.0 = substrate of P-gp) is given as 0.5. Besides, the entries for the “Brain transport compared with control” value in the data set on rat brain (carbonate-free HEPES) and in the data set on rat brain (mannitol Na+-free buffer) were “markedly decreased” and “significantly increased”, respectively. In addition, the “Vmax of brain influx” value in the data set on rat brain (imperatorin 0–1 mM, pH 7.4) worked out at 0.50 µmol/min/g. The “Kd (unsaturated component, passive diffusion)” value on rat brain (nonlinear regression) was found to be 3.1e-17 µL/min/g. Besides, the Km worked out at 180 µM with rat brain (read-out: apparent Km of brain influx, imperatorin 0–1 mM, pH 7.4) and 59 µM in the data set on TR-BBB cells [5] (read-out: Michaelis-Menten constant (Km) of uptake, 5 min, unlabeled imperatorin 0.01∼1 mM, pH 7.4). Besides, the “uptake after siRNA transfection” value in the data set with TR-BBB cells [1] (rPmat, rOct 2, rOctn2 or rOctn1 siRNA) is given as “not significantly affected”. For the same compound, the “Brain VD relative to [^14C]sucrose” value in data set [4] (IV injection, rat brain) is “about 6 fold”. The “BBB PS product relative to sucrose” value in data set [4] (IV injection, sucrose value from Lee and Kang, 2016) came to 12 fold; in data set [4] (IV injection, sucrose value from Wu and Pardridge, 1999), 20 fold. In data set [4] (SD rats, single IV, plasma), this compound gave an AUCss of 38.2 ± 1.5 % ID min/mL. The AUC in data set [4] (SD rats, single IV, plasma) turned out to be 22.1 ± 0.8 % ID min/mL; in data set [4] (SD rats, single IV, plasma, listed as [^3H]imperatorin), 22 ± 1 % ID min/mL. In addition, the Uptake in data set [4] (brain, SD rats) amounted to 0.086 ± 0.008 %ID/g; in data set [4] (heart, SD rats), 1.62 ± 0.10 %ID/g; in data set [4] (kidney, SD rats) it was 3.70 ± 0.33 %ID/g; in data set [4] (liver, SD rats), 1.21 ± 0.08 %ID/g; in data set [4] (lung, SD rats) it was 1.68 ± 0.03 %ID/g. Further, the “BUI … of inhibitor” value in data set [3] (inhibitor 1 mM) is recorded as 24.9 ± 3.4 %. In the data set on TR-BBB cells [5] (5 min, pH 7.4), the “maximum rate of uptake velocity (Vmax)” value is 2.22 nmol/mg protein/min. Moreover, in the data set with TR-BBB cells [5] (at 30 sec, Fig. 4), the “y-intersection of time course uptake (cell-to-medium ratio)” value was “approximately 140 ul/mg protein”. In addition, the “[^3H]Imperatorin uptake compared to control” value with TR-BBB cells [5] (extracellular pH 6.4) is on record as “significantly reduced”; in the data set with TR-BBB cells [5] (extracellular pH 8.4), “markedly increased”; in the data set on TR-BBB cells [5] (intracellular acidification by pretreatment with NH4Cl), “increased”; in the data set with TR-BBB cells [5] (pHi alkalized by 30 mM NH4Cl), “reduced”. The compound further yielded a microsomal CLint at 5 min in data set [6] of 17 µL/min/mg.
For the compound `C[N+](C)(C)C[C@H](O)CC(=O)[O-]` [L-Carnitine, L-carnitine], the “Brain volume of distribution (VD, % of Control) of [^3H]imperatorin” value in [7] is 79.2 ± 5.3 % of Control. The “Relative Uptake (% of Control) of [^3H]imperatorin” value in data set [8] was 86.4 ± 5.6 % of Control.
In the case of `C[n+]1ccc(-c2ccccc2)cc1` [MPP+, 1-Methyl-4-phenylpyridinium ion], the “Brain volume of distribution (VD, % of Control) of [^3H]imperatorin” value in data set [7] was 56.3 ± 5.8 % of Control. In addition, the “uptake after siRNA transfection” value in the data set on TR-BBB cells [1] (rPmat siRNA) is reported as “significantly inhibited”. In [8], the “Relative Uptake (% of Control) of [^3H]imperatorin” value is on record as 81.3 ± 3.9 % of Control.
On to `CNC[C@H](O)[C@@H](O)[C@H](O)[C@H](O)CO` [N-Methylglucamine (NMG), N-Methylglucamine], for which the “Relative Uptake (% of Control) of [^3H]imperatorin” value in data set [9] (Na+ replacement by N-methylglucamine) is listed as 97.4 ± 6.6 % of Control.
As for `CN1CCC[C@H]1c1cccnc1` [Nicotine, nicotine], the “BUI … of inhibitor” value in data set [3] (inhibitor 10 mM) is given as 27.6 ± 0.0 %.
Regarding `Nc1ccc(C(=O)NCC(=O)O)cc1` [PAH], in data set [7], the “Brain volume of distribution (VD, % of Control) of [^3H]imperatorin” value was 94.4 ± 7.1 % of Control. Besides, the “BUI … of inhibitor” value in [3] (inhibitor 10 mM) came out at 58.5 ± 6.3%.
As for `[Cl-].[K+]` [Potassium ion (KCl)], the “Relative Uptake (% of Control) of [^3H]imperatorin” value in data set [9] (sodium replaced by potassium ion (KCl)) is given as 97.3 ± 2.3 % of Control.
Turning to `[N-]=[N+]=[N-].[Na+]` [Sodium azide, sodium azide], the “Relative Uptake (% of Control) of [^3H]imperatorin” value in data set [9] (sodium azide 0.1%, pretreatment, pH 7.4) is 63.8 ± 2.7 % of Control.
With `CC[N+](CC)(CC)CC` [TEA], the “Brain volume of distribution (VD, % of Control) of [^3H]imperatorin” value in [7] was 103 ± 5 % of Control. Further, in data set [8], the “Relative Uptake (% of Control) of [^3H]imperatorin” value was 107 ± 10 % of Control. For the same compound, the “BUI … of inhibitor” value in [3] (inhibitor 10 mM) came out at 48.6 ± 4.5%.
In the case of `COc1cccc(C2(O)CCCCC2CN(C)C)c1` (stereo not shown) [Tramadol, tramadol hydrochloride], the Km in the data set with hCMEC/D3 cells was 49 µM.
On to `OC[C@H]1O[C@@](CO)(O[C@H]2O[C@H](CO)[C@@H](O)[C@H](O)[C@H]2O)[C@@H](O)[C@@H]1O` [sucrose], for which, in data set [10], the “BBB PS product” value is 0.32 ± 0.52 µL/min/g.
For “carbonyl cyanide-p-trifluorome-thoxyphenylhydrazone [FCCP]”, in data set [9] (10 μM FCCP, pre-incubated 10 min, pH 7.4), the “Relative Uptake (% of Control) of [^3H]imperatorin” value is 56.2 ± 6.3 % of Control.
